Assay results from the NIST ThermoML archive (doi:10.1016/j.jct.2016.05.006).
Where “and” joins values, the source holds several entries; their conditions need not be identical. Equal values may be shown once. ± gives the expanded uncertainty stated by the source.

Conditions: Liquid, Vibrating tube method

OCC(O)CO [glycerol]
mass density
Conditions	298.15 K	303.15 K	308.15 K	313.15 K	318.15 K	328.15 K	338.15 K	348.15 K
100 kPa	1258.4 ± 1.7 kg/m3 and 1259.1 ± 1.7 kg/m3	1255.7 ± 1.7 kg/m3	1252.9 ± 1.7 kg/m3 and 1253 ± 1.7 kg/m3	1250.1 ± 1.7 kg/m3	1247 ± 1.7 kg/m3	1240.9 ± 1.7 kg/m3	1234.8 ± 1.7 kg/m3	1228.7 ± 1.7 kg/m3
5000 kPa	1260.7 ± 1.7 kg/m3 and 1260.6 ± 1.7 kg/m3	1257.8 ± 1.7 kg/m3	1254.9 ± 1.7 kg/m3 and 1254.6 ± 1.7 kg/m3	1251.8 ± 1.7 kg/m3	1248.5 ± 1.7 kg/m3	1242.5 ± 1.7 kg/m3	1236.4 ± 1.7 kg/m3	1230.4 ± 1.7 kg/m3
10000 kPa	1262.3 ± 1.7 kg/m3 and 1262.1 ± 1.7 kg/m3	1259.3 ± 1.7 kg/m3	1256.3 ± 1.7 kg/m3 and 1256.1 ± 1.7 kg/m3	1253.4 ± 1.7 kg/m3	1250.1 ± 1.7 kg/m3	1244.1 ± 1.7 kg/m3	1238.1 ± 1.7 kg/m3	1232.1 ± 1.7 kg/m3
15000 kPa	1263.7 ± 1.8 kg/m3 and 1263.6 ± 1.8 kg/m3	1260.8 ± 1.8 kg/m3	1257.9 ± 1.8 kg/m3 and 1257.6 ± 1.8 kg/m3	1254.9 ± 1.8 kg/m3	1251.6 ± 1.8 kg/m3	1245.6 ± 1.7 kg/m3	1239.6 ± 1.7 kg/m3	1233.6 ± 1.7 kg/m3
20000 kPa	1265.2 ± 1.8 kg/m3 and 1265.1 ± 1.8 kg/m3	1262.3 ± 1.8 kg/m3	1259.4 ± 1.8 kg/m3 and 1259.1 ± 1.8 kg/m3	1256.4 ± 1.8 kg/m3	1253.2 ± 1.8 kg/m3	1247.2 ± 1.8 kg/m3	1241.3 ± 1.8 kg/m3	1235.3 ± 1.8 kg/m3
25000 kPa	1266.6 ± 1.8 kg/m3 and 1266.5 ± 1.8 kg/m3	1263.7 ± 1.8 kg/m3	1260.8 ± 1.8 kg/m3 and 1260.6 ± 1.8 kg/m3	1257.9 ± 1.8 kg/m3	1254.7 ± 1.8 kg/m3	1248.8 ± 1.8 kg/m3	1242.9 ± 1.8 kg/m3	1237.1 ± 1.8 kg/m3
